Measurements reported in a melting point compilation (Tetko et al.; mined from patent text by program, amines drawn as free bases though some values may be those of a salt).

SMILES	melting point [°C]
C=CC(=O)N1C(C)(C)CC(OC(=O)C(C#N)(Cc2cc(C(C)(C)C)c(O)c(C(C)(C)C)c2)Cc2cc(C(C)(C)C)c(O)c(C(C)(C)C)c2)CC1(C)C	174
COC(=O)c1cncn1C1c2ccccc2CC1(C)C (single isomer, unassigned; (-))	74 to 76
CS(=O)c1c(C(=N)NO)nn(-c2c(Cl)cc(C(F)(F)F)cc2Cl)c1N (stereo not given)	225 to 226
CCCCCCCCCCCC(=O)NCCO	80 to 84
Cc1c(SC(=S)N(C)C)sn(-c2ccccc2)c1=O	158 to 160
Cc1c(C)n(CC=Cc2ccccc2)c2c(OCc3ccccc3)nncc12	132 to 134
COc1ccc(NC(=O)c2ccc(-c3ccc(C(=O)N4CCCC4)cc3C)cc2)cc1N1CCN(C)CC1	187 to 188
CCOC(=O)N[C@@H]1Cc2ccccc2[C@H]1Cl (relative stereo)	82 to 84
CN1CCN(C(=NNc2ccccc2Cl)c2ccccc2F)CC1	109 to 111
CC1(C)NC(=O)c2ccc(Oc3nnnn3-c3ccccc3)cc21	202 to 204
FC(F)(F)Oc1ccc(Nc2cc(-n3ccc(C(F)(F)F)n3)c3ccccc3n2)cc1	128 to 130
O=C1CC[C@H]2N1CCN1C(=O)C[C@H]3CCCC[C@@]321 (relative stereo)	135 to 136
COc1ccc(C(=O)Nc2ccccc2)cc1NCc1cccc(Cl)c1	203 to 205
CCCCCC(=O)NC1(OCC)CC1	47 to 48.5
CC1CC(c2ccccc2)(N(C)C)CCC1=O (stereo not given)	50
COc1ccc(C2CCNCC2)cc1OC	98 to 100
O=[N+]([O-])c1ccc(CCN2CCN(c3ccc([N+](=O)[O-])cc3Cl)CC2)cc1	100 to 102
N#Cc1cccnc1N1CCN(CC(=O)Nc2cccc(C(F)(F)F)c2F)CC1	118 to 121
NCCNc1n[nH]c2ncnc(Nc3cccc(Cl)c3)c12	200
COC(=O)c1nc(-c2ccc(Cl)c(OC)c2F)nc(N)c1OCC(F)(F)F	123 to 125

SMILES	melting point [°C]
COc1ccc2c(c1)nc1snc(C(=O)c3ncc(C)c(OC)c3C)n12	170 to 171
CNC(=O)c1cccc(NC(=O)Cc2ccc3c(c2)OCO3)c1	174 to 175
CN1C=Nc2cc(Cl)c3cc4ccccc4cc3c2C1	236
CC(=O)c1csc2ccc(OS(=O)(=O)c3ccccc3)cc12	129 to 130
CCC(=O)OCOC(=O)Oc1ccc([N+](=O)[O-])cc1	35 to 36
COc1cc(Nc2c(C#N)cnc3cc(-c4cc(CN5CCOCC5)c(CN5CCOCC5)s4)c(OC)cc23)c(Cl)cc1Cl	120 to 124
COC1CCC(C2=C(Cl)C(=O)c3ccccc3C2=O)CC1 (stereo not given)	110 to 113
Cc1nsc(-c2ccc(Cl)nn2)n1	180
C=CCN1CC(=O)N(c2cc(Cl)ccc2C)C1=S	106 to 109
N#Cc1cccc(NC(=O)CN2CCN(c3ncccc3C#N)CC2)c1	166 to 167
Cc1nc2ncnn2c(O)c1F	273
O=C(c1ccc(Cl)c(Cl)c1)N1CCCC(c2cc(Br)cc(Br)c2)=N1	179 to 182
COc1cc(COC(=O)NC2Cc3ccccc3C2)ccc1OC(C)=O	114 to 116
CC(C)(O)C[C@@H]1CO[C@](C)([C@H]2CC[C@H]3[C@@H](O)CCC[C@@]32C)C1	67
CCOC(=O)c1cn(-c2cc(N)c(F)cc2F)c2cc(F)c(F)cc2c1=O	198 to 205
C=CCNc1nc(NCC)nc2ccc([N+](=O)[O-])cc12	227 to 228
CC(C)(C)P1(=O)c2ccccc2CN1c1ccccc1 (stereo not given)	171 to 172
CC(O)c1cc2c(c(Cl)n1)OCC2C (stereo not given)	67 to 68
CC(C(=O)O)c1ccc(OCCNC(=O)C2Cc3ccccc3N2S(=O)(=O)c2ccc(-c3cc(C(F)(F)F)ccc3Cl)cc2)cc1 (stereo not given)	91 to 100
CCOC(=O)c1cc2cc(OCCNC[C@H](O)COc3ccccc3)ccc2s1	99 to 100

Further lines, results first:

melting point [°C]	SMILES
172 to 173	CON=C(C#CC(=O)c1ccc(Cl)cc1)C(=O)OC
208 to 209	CCNC(=NC#N)Nc1ccc(C2=NNC(=O)CC2C)cc1 (stereo not given)
145 to 146	CCC(O)(c1cccc(O)c1)c1nccs1 (stereo not given)
43 to 45	CCCCCCCCCCCCn1nnnc1CCC(=O)OC
138 to 139	CCOc1nn(-c2ccc(C(F)(F)F)cn2)cc1CCCOc1ccc(OC)cc1CC(=O)O
95	O=C1COc2cc(OCCCCl)ccc2N1
156 to 159	Cn1c(C(=O)NN)nc2ccccc21
223 to 226	O=C(O)COc1cccc2c1CCc1sc(Sc3ccc([N+](=O)[O-])cc3[N+](=O)[O-])nc1-2
214 to 217	COC(=O)COc1ccc(NC(=O)NC(=O)c2ccc(C#N)cc2)cc1
220 to 221	CSc1nn2c(N3C[C@@H](C)N[C@@H](C)C3)cc(C)nc2c1S(=O)(=O)c1ccccc1
155 to 159	COC(=O)c1[nH]cnc1CCNC(=O)[C@H](Cc1ccccc1)NC(=O)[C@H](Cc1ccccc1)NC(=O)OC(C)(C)C
234	COc1ccc(-c2coc3c(C)c(O)ccc3c2=O)cc1OC
299 to 302	C=C1SC(=O)N(c2ccc3cc(-c4ccc(O)c(C56CC7CC(CC(C7)C5)C6)c4)ccc3c2)C1=O
144 to 145	CCCCCCCCCNC(=O)NCC(=O)O
143 to 147	COc1cc2c(cc1O)CC(C)(C)N(Cc1cc(OC)c(OC)c(OC)c1)C2
190 to 192	C=CCN(CC)c1ccc2[nH]c3cnc(C(=O)OCC)cc3c2c1
210 to 211	COc1ccc2ccn(CC(N)=O)c2c1
165 to 167	COC(=O)[C@@H]1CCCN1S(=O)(=O)c1ccc(Cl)c(COc2cccc3cc(C(F)(F)F)c(C)nc23)c1Cl
215 to 216	CS(=O)(=O)c1ccc(-n2cnc3ccc(-c4nnc(C5CC5)o4)cc32)cc1
109 to 113	Cc1cc2c(c3c1CCC3)OC(CNC(=O)OCc1ccccc1)C2 (stereo not given)
95 to 100	C#CCOCC(C)(COCC#C)NC(=O)C(Oc1ccc2ncc(C#C)cc2c1)SC (stereo not given)
173	O=C(N[C@H]1CC[C@H](CCN2CCC(c3cccc4c3CCO4)CC2)CC1)C(F)(F)F
67.8 to 70	COC(C)(C(=S)N(C)C)c1ccccn1 (stereo not given)
127 to 129	CCOC(=O)n1nc(Oc2c(F)cc(C(F)(F)F)cc2Cl)cc1C
137 to 138	COc1ccc(-c2cc(=O)n(Cc3ccccc3)nc2-c2ccc(OC)c(F)c2)cc1
201	CSC1C(O)C(CO)OC1n1ccc(N)nc1=O (stereo not given)
200 to 201	CN(C)c1cccc2c(S(=O)(=O)NCCCCn3cnc4c(N)nc5ccccc5c43)cccc12
221 to 223	Cc1cc(C)c(Nc2nc(C)ncc2S(=O)(=O)c2ccc(N3CCOCC3)cc2)c(C)c1
179 to 181	CCOCc1nc2c(N)nc3ccccc3c2n1OC(C)C
128 to 132	Cc1cccc(-c2ncc(NC(=O)OCc3ccccc3)c(=O)n2CC(=O)NC(Cc2ccccc2)C(=O)C(F)(F)F)c1 (stereo not given)
